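At the GI50, growth is halved. The concentration for full growth arrest is given as TGI.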
Columns and labels:
Experiment in all cases: NCI tumour cell line growth inhibition, 384-well format
HOP-92 NSCLC = test system: HOP-92 NSCLC
HT29 colon = test system: HT29 colon
OVCAR-8 ovarian = test system: OVCAR-8 ovarian
BT-549 breast = test system: BT-549 breast
OVCAR-5 ovarian = test system: OVCAR-5 ovarian
SF-295 CNS = test system: SF-295 CNS
SK-MEL-28 melanoma = test system: SK-MEL-28 melanoma
OVCAR-4 ovarian = test system: OVCAR-4 ovarian
MCF7 breast = test system: MCF7 breast
RXF 393 renal = test system: RXF 393 renal
UACC-62 melanoma = test system: UACC-62 melanoma
NCI-H322M lung = test system: NCI-H322M lung
786-0 renal = test system: 786-0 renal
HCT-15 colon = test system: HCT-15 colon
SF-539 CNS = test system: SF-539 CNS
A498 renal = test system: A498 renal
UACC-257 melanoma = test system: UACC-257 melanoma
TK-10 renal = test system: TK-10 renal
M14 melanoma = test system: M14 melanoma
PC-3 prostate = test system: PC-3 prostate
IGROV1 ovarian = test system: IGROV1 ovarian
NCI/ADR-RES ovarian = test system: NCI/ADR-RES ovarian
MDA-MB-231 breast = test system: MDA-MB-231 breast
EKVX NSCLC = test system: EKVX NSCLC
ACHN renal = test system: ACHN renal
OVCAR-3 ovarian = test system: OVCAR-3 ovarian
MALME-3M melanoma = test system: MALME-3M melanoma
K-562 leukemia = test system: K-562 leukemia
A549 NSCLC = test system: A549 NSCLC
CAKI-1 renal = test system: CAKI-1 renal
NCI-H226 lung = test system: NCI-H226 lung
NCI-H460 NSCLC = test system: NCI-H460 NSCLC
SF-268 CNS = test system: SF-268 CNS
HOP-62 NSCLC = test system: HOP-62 NSCLC
UO-31 renal = test system: UO-31 renal
NCI-H23 lung = test system: NCI-H23 lung

CC[C@]1(O)C[C@H]2CN(CCc3c([nH]c4ccccc34)[C@@](C(=O)OC)(c3cc4c(cc3OC)N(C=O)[C@H]3[C@@](O)(C(=O)OC)[C@H](OC(C)=O)[C@]5(CC)C=CCN6CC[C@]43[C@@H]65)C2)C1
GI50 (HOP-92 NSCLC): < 23.2 nM | TGI (HOP-92 NSCLC): 41100 nM | TGI (HT29 colon): 36200 nM | GI50 (OVCAR-8 ovarian): < 12.1 nM | TGI (OVCAR-8 ovarian): 47 nM | TGI (BT-549 breast): 32.9 nM | GI50 (OVCAR-5 ovarian): 44.2 nM | GI50 (SF-295 CNS): < 14.2 nM | TGI (SF-295 CNS): < 23.1 nM | TGI (SK-MEL-28 melanoma): 56200 nM | GI50 (OVCAR-4 ovarian): 1400 nM | TGI (MCF7 breast): 4320 nM | TGI (RXF 393 renal): 78100 nM | TGI (UACC-62 melanoma): 26000 nM | GI50 (NCI-H322M lung): 34 nM | GI50 ([…]-0 renal): 14.3 nM | TGI (786-0 renal): 48100 nM | GI50 (HCT-15 colon): 72 nM | TGI (HCT-15 colon): 1310 nM | TGI (SF-539 CNS): < 12.2 nM | GI50 (A498 renal): < 16.3 nM | TGI (A498 renal): 844 nM | TGI (UACC-257 melanoma): 20200 nM | GI50 (TK-10 renal): 54.5 nM | TGI (M14 melanoma): 17800 nM | GI50 (PC-3 prostate): < 10.5 nM | TGI (PC-3 prostate): > 61200 nM | GI50 (IGROV1 ovarian): < 27.3 nM | TGI (IGROV1 ovarian): > 35600 nM | GI50 (NCI/ADR-RES ovarian): 1870 nM | TGI (NCI/ADR-RES ovarian): 4570 nM | TGI (MDA-MB-231 breast): > 93800 nM | GI50 (EKVX NSCLC): 34.2 nM | TGI (EKVX NSCLC): > 91800 nM | GI50 (ACHN renal): 262 nM | TGI (ACHN renal): > 95900 nM | TGI (OVCAR-3 ovarian): < 11 nM | TGI (MALME-3M melanoma): 29300 nM | TGI (K-562 leukemia): < 10.8 nM | GI50 (A549 NSCLC): 34.6 nM | GI50 (CAKI-1 renal): 30.4 nM | TGI (CAKI-1 renal): 18100 nM | GI50 (NCI-H226 lung): 39.9 nM | TGI (NCI-H226 lung): > 84900 nM | TGI (NCI-H460 NSCLC): 13.1 nM | TGI (SF-268 CNS): 20300 nM | TGI (HOP-62 NSCLC): 2330 nM | GI50 (UO-31 renal): 446 nM | TGI (UO-31 renal): > 84800 nM | TGI (NCI-H23 lung): 49.9 nM
